Assay results from patent US6642411B1, “Compounds and compositions for delivering active agents” (Emisphere Technologies, Inc., priority 1998, dated 2003).
In brackets after ≈: the same amount, converted by molar mass. Read-outs that look alike come from different tables or passages of the source.

Assay: Solubility of the carrier compound
Type: physicochemical

SMILES | solubility (aqueous NaOH solution, aqueous buffer, thermodynamic from solid, 200 mg+350 μl 2N NaOH+650 μl H2O, pH 7.67, read-out: Solubility) | solubility (clear solution, pH=6.85)
CC(C(=O)O)c1ccc(NC(=O)c2ccccc2O)cc1 (centres unmarked) [Example 1, 2-(4-(N-salicyloyl)aminophenyl)propionic acid] | 200 mg/mL (≈ 701 mM) | –
CC(C(=O)[O-])c1ccc(NC(=O)c2ccccc2O)cc1.[Na+] (centres unmarked) [Example 2, sodium 2-(4-(N-salicyloyl)aminophenyl)propionate] | – | 200 mg/mL
